Calls of active or inactive are those of the source. The rule behind the calls is not given here.
Key:
Tumor Cell line [1] = assay: Multidrug resistant(MDR) reversing activity in vitro in human tumor cells; Active; type: functional, cell-based
Tumor Cell line [2] = assay: Multidrug resistant(MDR) reversing activity in vitro in human tumor cells; Inactive; type: functional, cell-based

SMILES | Reversing activity (Tumor Cell line [1]) | Reversing activity (Tumor Cell line [2])
O=C(C(c1ccccc1)c1ccccc1)N1CCN(C[C@@H](O)COc2cccc3ncccc23)CC1 | Active | –
O=C(O)[C@H]1O[C@@H](O[C@@H](COc2cccc3ncccc23)CN2CCN(C(=O)C(c3ccccc3)c3ccccc3)CC2)[C@H](O)[C@@H](O)[C@@H]1O | – | inactive
O=C(O)[C@H]1O[C@@H](O[C@H](COc2cccc3ncccc23)CN2CCN(C(=O)C(c3ccccc3)c3ccccc3)CC2)[C@H](O)[C@@H](O)[C@@H]1O | – | inactive
